Laboratory results published in US20220330549A1, “USE OF N-BENZYLBENZAMIDE-BASED COMPOUND AS HERBICIDE” (Northwest A&F University, priority 2020, published 2022).

How the values were obtained:
Format in all cases: in vivo
Barnyard grass [1] = assay: Herbicidal activity test for indoor pre-emergence soil treatment; design: key: level 1-9; higher = more weed remaining vs blank control; settings: 150 g a.i./ha, visual inspection 21 days after treatment
Outline: (§1)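 Compounds were formulated as 10% emulsifiable concentrates and sprayed onto the soil 24 h after sowing, at 150 g(a.i.)/ha. Soil was sandy loam (≤2% organic matter), with seeds under 0.5–2.0 cm cover, per NY/T 1155.3-2006. Visual 1–9 ratings relative to blank control were made after 21 days.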

Piemarker [2] = assay: as above; design: key: level 1-9; higher = more weed remaining vs blank control; settings: 150 g a.i./ha, visual inspection 21 days after treatment
Outline: as §1

green bristlegrass [3] = assay: as above; design: key: level 1-9; higher = more weed remaining vs blank control; settings: 150 g a.i./ha, visual inspection 21 days after treatment
Outline: as §1

Amaranthus retroflexus [4] = assay: as above; design: key: 1-9 levels; higher = more weed remaining vs blank control; settings: 150 g a.i./ha, visual inspection 21 days after treatment
Outline: as §1

Digitaria sanguinalis [5] = assay: as above; design: key: 1-9 levels; higher = more weed remaining vs blank control; settings: 150 g a.i./ha, visual inspection 21 days after treatment
Outline: as §1

Humulus scandens [6] = assay: as above; settings: 150 g a.i./ha, visual inspection 21 days after treatment
Outline: as §1

Amaranthus retroflexus [7] = assay: Herbicidal activity test for indoor post-emergence spraying on stems and leaves; design: key: grade level by weed remaining vs blank control, e.g. 5 = 10.1-15%; settings: 150 g a.i./ha, visual inspection 21 days after treatment
Outline: (§2)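 Visual inspection at 21 days after treatment gave a level rating, each level defined as a percentage band of the weed remaining in the blank control area. Plants were sprayed on stems and leaves after emergence, following NY/T 1155.4-2006.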

Barnyard grass [8] = assay: as above; design: key: grade level by weed remaining vs blank control, e.g. 5 = 10.1-15%; settings: 150 g a.i./ha, visual inspection 21 days after treatment
Outline: as §2

Digitaria sanguinalis [9] = assay: as above; design: key: grade level by weed remaining vs blank control, e.g. 5 = 10.1-15%; settings: 150 g a.i./ha, visual inspection 21 days after treatment
Outline: as §2

Humulus scandens [10] = assay: as above; design: key: grade level by weed remaining vs blank control, e.g. 5 = 10.1-15%; settings: 150 g a.i./ha, visual inspection 21 days after treatment
Outline: as §2

Piemarker [11] = assay: as above; design: key: grade level by weed remaining vs blank control, e.g. 5 = 10.1-15%; settings: 150 g a.i./ha, visual inspection 21 days after treatment
Outline: as §2

green bristlegrass [12] = assay: as above; design: key: grade level by weed remaining vs blank control, e.g. 5 = 10.1-15%; settings: 150 g a.i./ha, visual inspection 21 days after treatment
Outline: as §2

Broadleaf weed = assay: Post-emergence herbicidal activity test in a paddy field; design: key: level scale; higher level = more weed left vs blank control; settings: 150 g a.i./ha (penoxsulam control 250 g(a.i.)/h)
Outline: (§3)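 Efficacy was visually estimated 15 and 30 days after spraying, grading weed coverage relative to an untreated neighbouring plot (level 2 = 0 to 2.5%, level 9 = 67.6 to 100%). Treatments were 150 g(a.i.)/ha from 10% emulsifiable concentrates applied at the 4-5 leaf rice stage, four repeats of 50 m^2 each.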

Cyperaceae = assay: as above; design: key: level scale; higher level = more weed left vs blank control; settings: 150 g a.i./ha (penoxsulam control 250 g(a.i.)/h)
Outline: as §3

Gramineae = assay: as above; design: key: level scale; higher level = more weed left vs blank control; settings: 150 g a.i./ha (penoxsulam control 250 g(a.i.)/h)
Outline: as §3

Acalypha australis = assay: Field test for weed control in a corn field; settings: 150 g a.i./ha, after treatment
Outline: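 Post-emergence field trial in a corn field following GB/T 17980.42-2000. Test compounds were formulated as 10% emulsifiable concentrates, diluted in water, and sprayed at 150 g(a.i.)/ha when corn had 2 to 5 leaves, with 4 replicates on 20 m^2 plots. Mesotrione 25% oil dispersion served as the control agent. Weed control was scored on a 1-9 scale.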

Amaranthus retroflexus [13] = assay: Field test for weed control in a corn field; settings: 150 g a.i./ha, 30 days after treatment
Outline: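 Field efficacy trial in a corn field following GB/T 17980.42-2000. Test compounds were formulated as 10% emulsifiable concentrates, diluted in water and sprayed post-emergence when corn had 2 to 5 leaves. Each treatment covered 20 m^2 with 4 replicates. A 25% mesotrione oil dispersion served as control. Damage to Amaranthus retroflexus was rated on a 1-9 scale against untreated blank plots.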

Barnyard grass [14] = assay: Field test for weed control in a corn field; settings: 150 g a.i./ha, 30 days after treatment
Outline: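 Corn-field efficacy trial following GB/T 17980.42-2000. Test compounds were formulated as 10% emulsifiable concentrates, diluted in water and sprayed post-emergence at 150 g(a.i.)/ha when corn had 2 to 5 leaves. Each treatment was replicated 4 times on 20 m^2 plots. Barnyard grass control was rated on a 1-9 damage scale.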

Chenopodium album = assay: Field test for weed control in a corn field; settings: 150 g a.i./ha, after treatment
Outline: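 A corn-field efficacy trial following GB/T 17980.42-2000 tested post-emergence control of Chenopodium album. Test compounds formulated as 10% emulsifiable concentrates were diluted in water and sprayed at 150 g(a.i.)/ha when the corn had 2 leaves to 5 leaves, on 20 m^2 plots with 4 replicates. Herbicidal activity was rated on a 1-9 scale by damage symptoms and severity.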

Convolvulus arvensis = assay: Field test for weed control in a corn field; settings: 150 g a.i./ha, after treatment
Outline: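 Field trial of weed control against Convolvulus arvensis in corn, run following GB/T 17980.42-2000. Test agents were formulated as 10% emulsifiable concentrates and sprayed in water at 150 g(a.i.)/ha when corn plants had 2 to 5 leaves. Each treatment was replicated 4 times on 20 m^2 plots, and 25% mesotrione oil dispersion served as the control agent.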

Digitaria sanguinalis [15] = assay: Field test for weed control in a corn field; settings: 150 g a.i./ha, after treatment
Outline: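 Field trial in a corn field following GB/T 17980.42-2000. Test compounds were formulated as 10% emulsifiable concentrates, diluted in water and sprayed post-emergence at 150 g(a.i.)/ha when corn had 2 to 5 leaves, with 4 replicates on 20 m^2 plots. Control of Digitaria sanguinalis was scored on a 1-9 scale based on weed damage relative to the untreated blank area.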

Portulaca oleracea = assay: Field test for weed control in a corn field; settings: 150 g a.i./ha, after treatment
Outline: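 Field efficacy trial in corn following GB/T 17980.42-2000. Test compounds were prepared as 10% emulsifiable concentrates, diluted in water, and sprayed at 150 g(a.i.)/ha when corn had 2 to 5 leaves after sowing. Plots were 20 m^2 with 4 replicates per treatment. Herbicidal activity was scored on a 1-9 scale from weed damage symptoms and severity.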

Solanum nigrum = assay: Field test for weed control in a corn field; settings: 150 g a.i./ha, 30 days after treatment
Outline: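 Post-emergence weed control was tested in a corn field following GB/T 17980.42-2000. Compounds were made into 10% emulsifiable concentrates, diluted in water and sprayed at 150 g(a.i.)/ha when corn had 2 to 5 leaves after sowing, in 20 m^2 plots with 4 replicates. Effects on Solanum nigrum were graded on a 1-9 scale relative to the blank control area.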

goosegrass = assay: Field test for weed control in a corn field; settings: 150 g a.i./ha, after treatment
Outline: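 Weed control efficacy against goosegrass was tested in a corn field following GB/T 17980.42-2000. Compounds formulated as 10% emulsifiable concentrates were diluted in water and sprayed post-emergence at 150 g(a.i.)/ha when corn had 2 to 5 leaves, with 4 replicates of 20 m^2 plots. Herbicidal activity was rated on a 1-9 scale by damage symptoms and severity.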

green bristlegrass [16] = assay: Field test for weed control in a corn field; settings: 150 g a.i./ha, after treatment
Outline: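 Post-emergence weed control was tested in a corn field following GB/T 17980.42-2000. When the corn had 2 leaves to 5 leaves after sowing, 10% emulsifiable concentrates diluted in water were sprayed at 150 g(a.i.)/ha on 20 m^2 plots, four replicates per treatment. Effects on green bristlegrass were scored on a 1-9 damage scale relative to the blank control area.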

nutgrass flatsedge = assay: Field test for weed control in a corn field; settings: 150 g a.i./ha, after treatment
Outline: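 A corn field efficacy trial following GB/T 17980.42-2000 assessed post-emergence control of nutgrass flatsedge. Test compounds were formulated as 10% emulsifiable concentrates, diluted in water, and sprayed at 150 g(a.i.)/ha when the corn had 2 to 5 leaves. Each treatment had 4 replicates on 20 m^2 plots. Herbicidal activity was graded on a 1-9 scale by damage symptoms and severity.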

COc1ncccc1C(=O)NCc1cccc(Cl)c1 [Compound A91]
Herbicidal Activity Barnyard grass (Barnyard grass [1]): 1
Herbicidal Activity Piemarker (Piemarker [2]): 1
Herbicidal Activity Green bristlegrass (green bristlegrass [3]): 1
Herbicidal Activity Amaranthus retroflexus (Amaranthus retroflexus [4]): 1
Herbicidal Activity Digitaria sanguinalis (Digitaria sanguinalis [5]): 2 (equivalent to 0 to 2.5% of the weed in the blank control area)
Herbicidal Activity Humulus scandens (Humulus scandens [6]): 2 (equivalent to 0 to 2.5% of the weed in the blank control area)
Herbicidal Activity Amaranthus retroflexus (Amaranthus retroflexus [7]): 1
Herbicidal Activity Barnyard grass (Barnyard grass [8]): 1
Herbicidal Activity Digitaria sanguinalis (Digitaria sanguinalis [9]): 1
Herbicidal Activity Humulus scandens (Humulus scandens [10]): 1
Herbicidal Activity Piemarker (Piemarker [11]): 1
Herbicidal Activity Green bristlegrass (green bristlegrass [12]): 1
Herbicidal activity 15 days after treatment Broadleaf weed (Broadleaf weed): 1
Herbicidal activity 30 days after treatment Broadleaf weed (Broadleaf weed): 1
Herbicidal activity 15 days after treatment Cyperaceae (Cyperaceae): 1
Herbicidal activity 30 days after treatment Cyperaceae (Cyperaceae): 1
Herbicidal activity 15 days after treatment Gramineae (Gramineae): 2 (equivalent to 0 to 2.5% of the weed in the blank control area)
Herbicidal activity 30 days after treatment Gramineae (Gramineae): 2 (equivalent to 0 to 2.5% of the weed in the blank control area)
Post-emergence weed control effect, Acalypha australis (Acalypha australis): 2 (equivalent to 0 to 2.5% of the weed in the blank control area)
Post-emergence weed control effect, Amaranthus retroflexus (Amaranthus retroflexus [13]): 1
Post-emergence weed control effect, Barnyard grass (Barnyard grass [14]): 1
Post-emergence weed control effect, Chenopodium album (Chenopodium album): 1
Post-emergence weed control effect, Convolvulus arvensis (Convolvulus arvensis): 1
Post-emergence weed control effect, Digitaria sanguinalis (Digitaria sanguinalis [15]): 2 (equivalent to 0 to 2.5% of the weed in the blank control area)
Post-emergence weed control effect, Portulaca oleracea (Portulaca oleracea): 1
Post-emergence weed control effect, Solanum nigrum (Solanum nigrum): 2 (equivalent to 0 to 2.5% of the weed in the blank control area)
Post-emergence weed control effect, Goose grass (goosegrass): 2 (equivalent to 0 to 2.5% of the weed in the blank control area)
Post-emergence weed control effect, Green bristlegrass (green bristlegrass [16]): 2 (equivalent to 0 to 2.5% of the weed in the blank control area)
Post-emergence weed control effect, Nutgrass flatsedge (nutgrass flatsedge): 2 (equivalent to 0 to 2.5% of the weed in the blank control area)

COc1ncccc1C(=O)NCc1cccc(Cl)c1 [Compound A92]
Herbicidal Activity Barnyard grass (Barnyard grass [1]): 1
Herbicidal Activity Piemarker (Piemarker [2]): 1
Herbicidal Activity Green bristlegrass (green bristlegrass [3]): 1
Herbicidal Activity Amaranthus retroflexus (Amaranthus retroflexus [4]): 1
Herbicidal Activity Digitaria sanguinalis (Digitaria sanguinalis [5]): 1
Herbicidal Activity Humulus scandens (Humulus scandens [6]): 2 (equivalent to 0 to 2.5% of the weed in the blank control area)
Herbicidal Activity Amaranthus retroflexus (Amaranthus retroflexus [7]): 1
Herbicidal Activity Barnyard grass (Barnyard grass [8]): 1
Herbicidal Activity Digitaria sanguinalis (Digitaria sanguinalis [9]): 1
Herbicidal Activity Humulus scandens (Humulus scandens [10]): 1
Herbicidal Activity Piemarker (Piemarker [11]): 1
Herbicidal Activity Green bristlegrass (green bristlegrass [12]): 1
Herbicidal activity 15 days after treatment Broadleaf weed (Broadleaf weed): 1
Herbicidal activity 30 days after treatment Broadleaf weed (Broadleaf weed): 1
Herbicidal activity 15 days after treatment Cyperaceae (Cyperaceae): 1
Herbicidal activity 30 days after treatment Cyperaceae (Cyperaceae): 1
Herbicidal activity 15 days after treatment Gramineae (Gramineae): 2 (equivalent to 0 to 2.5% of the weed in the blank control area)
Herbicidal activity 30 days after treatment Gramineae (Gramineae): 2 (equivalent to 0 to 2.5% of the weed in the blank control area)
Post-emergence weed control effect, Acalypha australis (Acalypha australis): 2 (equivalent to 0 to 2.5% of the weed in the blank control area)
Post-emergence weed control effect, Amaranthus retroflexus (Amaranthus retroflexus [13]): 1
Post-emergence weed control effect, Barnyard grass (Barnyard grass [14]): 1
Post-emergence weed control effect, Chenopodium album (Chenopodium album): 1
Post-emergence weed control effect, Convolvulus arvensis (Convolvulus arvensis): 1
Post-emergence weed control effect, Digitaria sanguinalis (Digitaria sanguinalis [15]): 2 (equivalent to 0 to 2.5% of the weed in the blank control area)
Post-emergence weed control effect, Portulaca oleracea (Portulaca oleracea): 1
Post-emergence weed control effect, Solanum nigrum (Solanum nigrum): 2 (equivalent to 0 to 2.5% of the weed in the blank control area)
Post-emergence weed control effect, Goose grass (goosegrass): 1
Post-emergence weed control effect, Green bristlegrass (green bristlegrass [16]): 2 (equivalent to 0 to 2.5% of the weed in the blank control area)
Post-emergence weed control effect, Nutgrass flatsedge (nutgrass flatsedge): 2 (equivalent to 0 to 2.5% of the weed in the blank control area)
